# Measurements as given in patent publication US20060079453A1, “Hla binding peptides and their uses” (priority 2002, published 2006).
# Read-outs that look alike come from different tables or passages of the source. No end group written: not given here.
# How the values were obtained:
# HLA-DR DRB1*0405 (DR4) = HLA-DR DRB1*0405 (DR4) (Homo sapiens, UniProt P01903+P01911, A100R/A169T/D86S/F76Y/I96L/K127E/L162R/M171V/N62H/P40V/Q125Y/R42H/S133A/S149N/S66Y/V115G/V209L/W38E); test: biochemical; assay type: binding; conditions: DRB1 *0405
# HLA-DR DRB1*0101 (DR1) = HLA-DR DRB1*0101 (DR1) (Homo sapiens, UniProt P01903+P01911, A100R/D57E/F55L/F60I/F76Y/I96L/L162R/M171V/P40L/Q125E/R42F/V115G/Y59C); test: biochemical; assay type: binding; conditions: DRB1 *0101
# HLA-DR DRB1*1302 (DR13) = HLA-DR DRB1*1302 (DR13) (Homo sapiens, UniProt P01903+P01911, A100E/A169T/K41T/L162R/M171V/P40S/Q125H/Q178H/Q39Y/Q99D/R42S/S66N/T262R/V115G/W38E/Y61H); test: biochemical; assay type: binding; conditions: DRBI *1302
# HLA-DR DRB4*0101 (DR53) = HLA-DR DRB4*0101 (DR53) (Homo sapiens, UniProt P01903+P13762, G164S); test: biochemical; assay type: binding; conditions: DRB4 *0101
# HLA-DR DRB1*0301 (DR3) = HLA-DR DRB1*0301 (DR3) (Homo sapiens, UniProt P01903+P01911, A100K/A102G/A103R/A169T/F55Y/I96L/K41T/L162R/M171V/P40S/Q125H/Q178H/Q39Y/R42S/S66N/T106N/T262R/W38E/Y61H); test: biochemical; assay type: binding
# HLA-DR DRB1*1101 (DR11) = HLA-DR DRB1*1101 (DR11) (Homo sapiens, UniProt P01903+P01911, A100R/A169T/A87E/I96F/K41T/L162R/M171V/P40S/Q125H/Q178H/Q39Y/Q99D/R42S/S66Y/T262R/V115G/W38E); test: biochemical; assay type: binding; conditions: DRB1 *1101
# HLA-DR DRB1*0401 (DR4) = HLA-DR DRB1*0401 (DR4) (Homo sapiens, UniProt P01903+P01911, A100K/A169T/F76Y/I96L/K127E/L162R/M171V/N62H/P40V/Q125Y/R42H/S133A/S149N/S66Y/V115G/V209L/W38E); test: biochemical; assay type: binding; conditions: DRB1 *0401
# HLA-DR DRB5*0101 (DR51) = HLA-DR DRB5*0101 (DR51) (Homo sapiens, UniProt P01903+Q30154); test: biochemical; assay type: binding; conditions: DRB5 *0101
# HLA-DR DRB1*1501 (DR15) = HLA-DR DRB1*1501 (DR15) (Homo sapiens, UniProt P01903+P01911); test: biochemical; assay type: binding; conditions: DRBI *1501
# HLA-DR DRB3*0101 (DR52) = HLA-DR DRB3*0101 (DR52) (Homo sapiens, UniProt P01903+P79483); test: biochemical; assay type: binding
# HLA-DR DRB1*0701 (DR7) = HLA-DR DRB1*0701 (DR7) (Homo sapiens, UniProt P01903+P01911, A100R/A102G/A103Q/D57E/D86V/E43K/F76Y/K127E/L162R/M171V/P40G/Q125H/Q99D/R33Q/R42Y/R54Q/S133A/S66F/T210M/V115G/Y107V/Y59L/Y89S); test: biochemical; assay type: binding; conditions: DRB1 *0701
# HLA-DR DRB1*0901 (DR9) = HLA-DR DRB1*0901 (DR9) (Homo sapiens, UniProt P01903+P01911, A100R/A103E/D57H/D86V/F55Y/F60I/F76Y/I96F/K127E/L162R/M171V/P40D/Q125H/Q99R/R33Q/R42F/S133A/S66N/T210M/V115G/W38K/Y107V/Y59G/Y89S); test: biochemical; assay type: binding; conditions: DRB1 *0901
# HLA-DR DRB1*0802 (DR8) = HLA-DR DRB1*0802 (DR8) (Homo sapiens, UniProt P01903+P01911, A100R/A103L/A169T/F76Y/H45Y/I96F/K41T/L162R/M171V/P40S/Q125H/Q178H/Q39Y/Q99D/R218S/R42G/S66Y/V115G/W38E); test: biochemical; assay type: binding
# HLA-A*2902 = HLA-A*2902 (Homo sapiens, UniProt P04439, A270S/D101N/D185E/E176V/E277Q/E87Q/F33T/G231S/H175R/I121M/I218V/I322F/K168Q/L300P/L318F/M331R/P208A/P217A/Q86L/T323A/T345S/V100A/V358M); test: MHC molecular binding / Capture assay, IC50: A*2902
# HLA-A*3002 = HLA-A*3002 (Homo sapiens, UniProt P04439, D101N/D140H/D185E/E176R/F33S/G80R/H175R/K168Q/Q94H/R138E/R41S/V100E); test: biochemical; assay type: binding
# [1] = Binding affinity to A*2902 (expressed as an IC50)
# [2] = Binding affinity to A*3002 (expressed as an IC50)
# Chain of HLA-DR DRB1*1302 (DR13) (P01903 26-254 limits assumed, other chains not shown): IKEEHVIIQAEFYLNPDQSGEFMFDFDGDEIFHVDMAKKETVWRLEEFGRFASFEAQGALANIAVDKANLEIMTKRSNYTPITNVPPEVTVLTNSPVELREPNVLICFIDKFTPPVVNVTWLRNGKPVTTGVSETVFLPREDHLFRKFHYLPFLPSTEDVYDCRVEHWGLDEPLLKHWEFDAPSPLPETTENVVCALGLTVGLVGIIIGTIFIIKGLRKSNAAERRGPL
# Chain of HLA-DR DRB1*0301 (DR3) (P01903 26-254 limits assumed, other chains not shown): as above
# Chain of HLA-DR DRB1*1101 (DR11) (P01903 26-254 limits assumed, other chains not shown): as above
Compound,IC50 (HLA-DR DRB1*0405 (DR4)) [µM],IC50 (HLA-DR DRB1*0101 (DR1)) [µM],IC50 (HLA-DR DRB1*1302 (DR13)) [µM],IC50 (HLA-DR DRB4*0101 (DR53)) [µM],IC50 (HLA-DR DRB1*0301 (DR3)) [µM],IC50 (HLA-DR DRB1*1101 (DR11)) [µM],IC50 (HLA-DR DRB1*0401 (DR4)) [µM],IC50 (HLA-DR DRB5*0101 (DR51)) [µM],IC50 (HLA-DR DRB1*1501 (DR15)) [µM],IC50 (HLA-DR DRB3*0101 (DR52)) [µM],IC50 (HLA-DR DRB1*0701 (DR7)) [µM],IC50 (HLA-DR DRB1*0901 (DR9)) [µM],IC50 (HLA-DR DRB1*0802 (DR8)) [µM],other results
YLVCGERGFFYTPKT,0.73,11.1,9.27,34.5,37.2,> 10.5,1.44,95.2,10.7,92.8,64.6,1.52,> 54.4,
TCVLGKLSQELHKLQ,9,0.026,> 12.6,0.163,29.5,1.4,14.8,3.99,2.01,> 263,18.7,17.9,7.66,
LTDVSIACVY,,,,,,,,,,,,,,IC50 (HLA-A*2902): 0.764 µM; IC50 (HLA-A*3002): 0.072 µM
ITEYRHYNY,,,,,,,,,,,,,,IC50 (HLA-A*3002): 0.418 µM
RLRIVRGTQLFEDNYAL,1.02,0.0048,0.0052,0.12,11.3,2.07,8.39,0.046,0.031,1.2,0.012,1.83,6.32,
CC(C)C[C@H](NC(=O)[C@H](CO)NC(=O)[C@@H](N)CC(C)C)C(=O)N[C@@H](CC(=O)O)C(=O)N[C@H](C(=O)N[C@@H](CO)C(=O)N[C@@H](C)C(=O)N[C@@H](C)C(=O)N[C@@H](Cc1ccccc1)C(=O)N[C@@H](Cc1ccc(O)cc1)C(=O)O)C(C)C,,,,,,,,,,,,,,IC50 (HLA-A*2902; [1]): 0.012 µM
LSEYYDXD1Y,,,,,,,,,,,,,,IC50 (HLA-A*3002; read-out: Binding affinity to A*3002 (expressed as an IC50)): 0.489 µM
KEDSHTAWTIVRVEI,0.302,1.91,3.05,0.018,44.8,7.44,0.746,0.575,1.99,56.2,0.035,6.08,> 79,
CC(C)C[C@H](NC(=O)[C@H](Cc1c[nH]cn1)NC(=O)[C@H](CC(C)C)NC(=O)[C@H](CCCCN)NC(=O)[C@H](CCCNC(=N)N)NC(=O)CNC(=O)[C@H](Cc1ccc(O)cc1)NC(=O)[C@@H](NC(=O)[C@@H](N)CCCCN)[C@@H](C)O)C(=O)N[C@@H](Cc1ccc(O)cc1)C(=O)O,,,,,,,,,,,,,,IC50 (HLA-A*2902; [1]): 0.027 µM; IC50 (HLA-A*3002; [2]): 0.0015 µM
LFVVYRDSF,,,,,,,,,,,,,,IC50 (HLA-A*2902): 0.919 µM; IC50 (HLA-A*3002): 0.018 µM
PVDPNLEPY,,,,,,,,,,,,,,IC50 (HLA-A*3002): 7.12 µM
EHTSLNENITVPDTK,1.24,43.9,0.013,> 29,33.6,> 408,,5.55,11.1,> 42.2,37.2,> 78.9,> 16.3,
AYGPGPGKI,,,,,,,,,,,,,,IC50 (HLA-A*2902; A*2902 binding affinity (IC50)): > 156 µM; IC50 (HLA-A*3002; A*3002 binding affinity (IC50)): 5.43 µM
SSFFMNRFY,,,,,,,,,,,,,,IC50 (HLA-A*2902; [1]): 0.036 µM; IC50 (HLA-A*3002; [2]): 0.0075 µM
QLAFDTYQEFEQNPQ,4.84,> 18,19.7,> 32.8,7.85,> 15.4,28.6,> 9.51,> 86.7,0.738,21.1,> 59.5,> 33.3,
KLQTYPRTNTGSGTP,> 9.81,> 10.1,0.987,> 105,> 205,8.21,> 26.5,> 14,0.52,> 263,> 99.2,> 29.2,> 51.6,
